Legend:
Vγ9 gene = conditions: genomic DNA of the iPS cells; γδT cells as positive control; FIG. 4
Method: iPS cells were induced in the same manner as in Example 1, except that HMBPP in the HMBPP-containing medium was changed to 5 μL of zoledronic acid (Zol, Sigma-Aldrich Co., LLC).

[1] = test system: Human peripheral blood mononuclear cells; conditions: 10 nmol/L in RPMI 1640 medium with IL-2 added daily; KLF4, OCT3/4, SOX2, c-MYC by CytoTune-iPS 2.0; 14th day; FIG. 2
Method: Human peripheral blood mononuclear cells were put into the culture medium, and a culture medium containing about 1×10^6 monocytes was put into a 24-well plate (1st day). 1 μL of 20 μg/mL IL-2 was added to the culture medium every day. On the third day, the culture medium containing the cells was recovered from the plates, the culture medium was centrifugally separated, and the supernatant was removed. Then, 2 mL of a new HMBPP-containing medium was added to the cells, and 1 mL was put into each of two wells of a 24-well plate.
On the 6th day, the culture medium containing the cells was recovered from the plates, the culture medium was centrifugally separated, and the supernatant was removed. Then, an HMBPP-containing medium was added to the cells, and a culture medium containing 2×10^4 monocytes was put into a 96-well plate. KLF4, OCT3/4, SOX2, and c-MYC were introduced into the cells by using CytoTune-iPS 2.0 (Thermo Fisher Scientific, Inc.). The multiplicity of infection (MOI) was adjusted to be 20 to 30.
On the 7th day, the culture medium containing the cells recovered from the 96-well plate were added with a fresh HMBPP-containing medium and put into a 6-well plate. On the 8th, 10th, and 12th days, a stem cell culture medium (Stem Fit, Ajinomoto Co., Inc.) was added thereto, and thereafter, the culture medium was replaced using the stem cell culture medium.

## C/C(=C\COP(=O)(O)OP(=O)(O)O)CO [HMBPP, (E)-4-hydroxy-3-methyl-but-2-enyl pyrophosphate]
Vγ9 gene
  rearranged Vγ9 gene having the J1/J2 gene in the established iPS cells: have a Vγ9 gene that has undergone rearrangement
[1]
  colonies of iPS cells formed: a plurality of colonies of iPS cells has been formed
